Tests used:
Experiment in all cases: NCI60 five-dose screen
RPMI-8226 = format: cell-based; conditions: Homo sapiens, RPMI-8226, leukemia; for CC50: read-out: LC50 (the source's name)
A549/ATCC = format: cell-based; conditions: Homo sapiens, NSC lung cancer; for CC50: read-out: LC50 (the source's name)
NCI-H226 = format: cell-based; conditions: Homo sapiens, NCI-H226, NSC lung cancer; for CC50: read-out: LC50 (the source's name)
T-47D = format: cell-based; conditions: Homo sapiens, T47D, breast cancer; for CC50: read-out: LC50 (the source's name)
MDA-MB-468 = format: cell-based; conditions: Homo sapiens, MDA-MB-468, breast cancer; for CC50: read-out: LC50 (the source's name)
UACC-62 = format: cell-based; conditions: Homo sapiens, UACC-62, melanoma; for CC50: read-out: LC50 (the source's name)
NCI/ADR-RES = format: cell-based, human; conditions: Homo sapiens, ovarian cancer; for CC50: read-out: LC50 (the source's name)
SF-268 = format: cell-based; conditions: Homo sapiens, SF-268, CNS cancer; for CC50: read-out: LC50 (the source's name)
SK-MEL-5 = format: cell-based, human; conditions: Homo sapiens; for CC50: SK-MEL-5, SK-MEL-5, melanoma, read-out: LC50 (the source's name); for GI50: SK-MEL-5, melanoma
IGROV1 = format: cell-based; conditions: Homo sapiens, IGROV-1; IGROV1, ovarian cancer
BT-549 = format: cell-based; conditions: Homo sapiens, BT-549, breast cancer; for CC50: read-out: LC50 (the source's name)
SK-MEL-2 = format: cell-based; conditions: Homo sapiens, SK-MEL-2, melanoma; for CC50: read-out: LC50 (the source's name)
MOLT-4 = format: cell-based; conditions: Homo sapiens, MOLT-4, leukemia; for CC50: read-out: LC50 (the source's name)
SN12C = format: cell-based; conditions: Homo sapiens, renal cancer; for CC50: read-out: LC50 (the source's name)
PC-3 = format: cell-based; conditions: Homo sapiens, PC-3, prostate cancer; for CC50: read-out: LC50 (the source's name)
K-562 = format: cell-based; conditions: Homo sapiens, K562, K-562, leukemia; for CC50: read-out: LC50 (the source's name)
SF-295 = format: cell-based; conditions: Homo sapiens, SF-295, CNS cancer; for CC50: read-out: LC50 (the source's name)
MCF7 = format: cell-based; conditions: Homo sapiens, MCF7, breast cancer; for CC50: read-out: LC50 (the source's name)
SNB-75 = format: cell-based; conditions: Homo sapiens, SNB-75, CNS cancer; for CC50: read-out: LC50 (the source's name)
MDA-MB-231/ATCC = format: cell-based; conditions: Homo sapiens, breast cancer; for CC50: read-out: LC50 (the source's name)
HT29 = format: cell-based; conditions: Homo sapiens, HT-29, HT29, colon cancer; for CC50: read-out: LC50 (the source's name)
HCT-15 = format: cell-based; conditions: Homo sapiens, HCT-15, colon cancer; for CC50: read-out: LC50 (the source's name)
ACHN = format: cell-based; conditions: Homo sapiens, renal cancer; for CC50: read-out: LC50 (the source's name)
HCC-2998 = format: cell-based; conditions: Homo sapiens, HCC-2998, colon cancer; for CC50: read-out: LC50 (the source's name)
SNB-19 = format: cell-based; conditions: Homo sapiens, SNB-19, CNS cancer; for CC50: read-out: LC50 (the source's name)
SF-539 = format: cell-based; conditions: Homo sapiens, SF-539, CNS cancer; for CC50: read-out: LC50 (the source's name)
UO-31 = format: cell-based; conditions: Homo sapiens, UO-31, renal cancer; for CC50: read-out: LC50 (the source's name)
OVCAR-8 = format: cell-based; conditions: Homo sapiens, OVCAR-8, ovarian cancer; for CC50: read-out: LC50 (the source's name)
HCT-116 = format: cell-based; conditions: Homo sapiens, HCT-116, colon cancer; for CC50: read-out: LC50 (the source's name)
EKVX = format: cell-based; conditions: Homo sapiens, NSC lung cancer; for CC50: read-out: LC50 (the source's name)
SK-OV-3 = format: cell-based; conditions: Homo sapiens, SK-OV-3, ovarian cancer; for CC50: read-out: LC50 (the source's name)
OVCAR-3 = format: cell-based; conditions: Homo sapiens, OVCAR-3, ovarian cancer; for CC50: read-out: LC50 (the source's name)
LOX IMVI = format: cell-based; conditions: Homo sapiens, melanoma; for CC50: read-out: LC50 (the source's name)

With `CCOC(=O)c1cc(/C=N/NC(=O)c2[nH]c3ccc(Br)cc3c2-c2ccccc2)c[nH]1` [Derivative 3v, Ethyl (E)-4-((2-(5-bromo-3-phenyl-1H-indole-2-carbonyl)hydrazono)methyl)-1H-pyrrole-2-carboxylate] the GI50 (RPMI-8226) was 3.84 µM, the CC50 (RPMI-8226) was > 100 µM and the GI50 (A549/ATCC) was 4.37 µM. It also gave a CC50 (A549/ATCC) of 44.2 µM, a GI50 (NCI-H226) of 4.21 µM and a CC50 (NCI-H226) of 46.2 µM. For the same compound, the GI50 (T-47D) was 5.88 µM, the CC50 (T-47D) was > 100 µM and the GI50 (MDA-MB-468) was 2.6 µM. For the same compound, the CC50 (MDA-MB-468) was 34 µM, the GI50 (UACC-62) was 3.18 µM and the CC50 (UACC-62) was 40.7 µM. For the same compound, the GI50 (NCI/ADR-RES) was 2.23 µM, the CC50 (NCI/ADR-RES) was 21.2 µM and the GI50 (SF-268) was 6.04 µM. For the same compound, the CC50 (SF-268) was > 100 µM, the CC50 (SK-MEL-5) was 17.9 µM and the GI50 (SK-MEL-5) was 2.01 µM. For the same compound, the GI50 (IGROV1) was 3.75 µM, the GI50 (BT-549) was 13.4 µM and the CC50 (BT-549) was 60.2 µM. The GI50 (SK-MEL-2) was 4.37 µM, the CC50 (SK-MEL-2) was 47.3 µM and the GI50 (MOLT-4) was 3.91 µM. The CC50 (MOLT-4) was > 100 µM, the GI50 (SN12C) was 3.63 µM and the CC50 (SN12C) was 38.1 µM. For the same compound, the GI50 (PC-3) was 4.07 µM, the CC50 (PC-3) was > 100 µM and the GI50 (K-562) was 4.59 µM. For the same compound, the CC50 (K-562) was > 100 µM, the GI50 (SF-295) was 3.04 µM and the CC50 (SF-295) was 37.2 µM. The GI50 (MCF7) was 3.03 µM, the CC50 (MCF7) was 40.3 µM and the GI50 (SNB-75) was 1.95 µM. For the same compound, the CC50 (SNB-75) was 90.6 µM, the GI50 (MDA-MB-231/ATCC) was 3.27 µM and the CC50 (MDA-MB-231/ATCC) was 33.8 µM. It also gave a GI50 (HT29) of 3.33 µM, a CC50 (HT29) of 35.3 µM and a GI50 (HCT-15) of 3.21 µM. The CC50 (HCT-15) was 35.7 µM, the GI50 (ACHN) was 4.87 µM and the CC50 (ACHN) was 49.9 µM. The GI50 (HCC-2998) was 4.17 µM, the CC50 (HCC-2998) was 42.1 µM and the GI50 (SNB-19) was 4.08 µM. The CC50 (SNB-19) was 43.4 µM, the GI50 (SF-539) was 2.02 µM and the CC50 (SF-539) was 13.5 µM. For the same compound, the GI50 (UO-31) was 4.21 µM, the CC50 (UO-31) was 61.9 µM and the GI50 (OVCAR-8) was 3.65 µM. For the same compound, the CC50 (OVCAR-8) was 38.5 µM, the GI50 (HCT-116) was 3.42 µM and the CC50 (HCT-116) was 50.5 µM. It also gave a GI50 (EKVX) of 7.14 µM, a CC50 (EKVX) of 60.7 µM and a GI50 (SK-OV-3) of 1.31 µM. The CC50 (SK-OV-3) was 80.3 µM, the GI50 (OVCAR-3) was 3.23 µM and the CC50 (OVCAR-3) was 33.4 µM. It also gave a GI50 (LOX IMVI) of 4.31 µM and a CC50 (LOX IMVI) of 41.1 µM.
With `CCc1cc[nH]c1/C=N/NC(=O)c1[nH]c2ccc(Br)cc2c1-c1ccccc1` [Derivative 3u, (E)-5-Bromo-N′-((3-ethyl-1H-pyrrol-2-yl)methylene)-3-phenyl-1H-indole-2-carbohydrazide] the GI50 (RPMI-8226) was 2.04 µM, the CC50 (RPMI-8226) was 78.6 µM and the GI50 (A549/ATCC) was 2 µM. For the same compound, the CC50 (A549/ATCC) was 41.5 µM, the GI50 (NCI-H226) was 1.97 µM and the CC50 (NCI-H226) was 37.7 µM. The GI50 (T-47D) was 2.17 µM, the CC50 (T-47D) was 41.9 µM and the GI50 (MDA-MB-468) was 2.72 µM. It also gave a CC50 (MDA-MB-468) of 32.1 µM, a GI50 (UACC-62) of 2.48 µM and a CC50 (UACC-62) of 30.8 µM. It also gave a GI50 (NCI/ADR-RES) of 2.68 µM, a CC50 (NCI/ADR-RES) of 34.6 µM and a GI50 (SF-268) of 2.86 µM. The CC50 (SF-268) was 42.7 µM, the CC50 (SK-MEL-5) was 27.2 µM and the GI50 (SK-MEL-5) was 2.54 µM. The GI50 (IGROV1) was 3.52 µM, the LC50 (concentration causing 50% net cell kill) (IGROV1) was 44 µM and the GI50 (BT-549) was 2.7 µM. For the same compound, the CC50 (BT-549) was 34.2 µM, the GI50 (SK-MEL-2) was 6.77 µM and the CC50 (SK-MEL-2) was 45.8 µM. For the same compound, the GI50 (MOLT-4) was 2.37 µM, the CC50 (MOLT-4) was 55.1 µM and the GI50 (SN12C) was 2.26 µM. For the same compound, the CC50 (SN12C) was 34 µM, the GI50 (PC-3) was 3.09 µM and the CC50 (PC-3) was 47.6 µM. The GI50 (K-562) was 2.27 µM, the CC50 (K-562) was 56.2 µM and the GI50 (SF-295) was 2.29 µM. For the same compound, the CC50 (SF-295) was 37.1 µM, the GI50 (MCF7) was 2.63 µM and the CC50 (MCF7) was 37.5 µM. The GI50 (SNB-75) was 4.94 µM, the CC50 (SNB-75) was 43.4 µM and the GI50 (MDA-MB-231/ATCC) was 5.02 µM. The CC50 (MDA-MB-231/ATCC) was 44.7 µM, the GI50 (HT29) was 2.17 µM and the CC50 (HT29) was 39.3 µM. For the same compound, the GI50 (HCT-15) was 1.03 µM, the CC50 (HCT-15) was 38.8 µM and the GI50 (ACHN) was 3.27 µM. It also gave a CC50 (ACHN) of 36.7 µM, a GI50 (HCC-2998) of 4.11 µM and a CC50 (HCC-2998) of 42.4 µM. The GI50 (SNB-19) was 4.5 µM, the CC50 (SNB-19) was 42.2 µM and the GI50 (SF-539) was 3.17 µM. It also gave a CC50 (SF-539) of 35.6 µM, a GI50 (UO-31) of 2.94 µM and a CC50 (UO-31) of 39.7 µM. For the same compound, the GI50 (OVCAR-8) was 3.02 µM, the CC50 (OVCAR-8) was 39.8 µM and the GI50 (HCT-116) was 2.5 µM. The CC50 (HCT-116) was 44 µM, the GI50 (EKVX) was 2.79 µM and the CC50 (EKVX) was 37.7 µM. The GI50 (SK-OV-3) was 2.59 µM, the CC50 (SK-OV-3) was 42.4 µM and the GI50 (OVCAR-3) was 3.2 µM. For the same compound, the CC50 (OVCAR-3) was 44 µM, the GI50 (LOX IMVI) was 2.42 µM and the CC50 (LOX IMVI) was 32.3 µM.

From publication PMC12203311, “Design, synthesis, in silico and in vitro evaluation of pyrrole–indole hybrids as dual tubulin and aromatase inhibitors with potent anticancer activities” (RSC Advances, 2025)
